According to ChEMBL document CHEMBL3272320, “Antidepressant and anticonvulsant activity of 1-(5-phenyl-4-oxazolin-2-yl)-4-substituted piperazines” (1976):
Calls of active or inactive are those of the source. No cut-off for these calls is given here.

Tests used:
Mus musculus [1] = assay: Antidepressant activity in mouse at […] after 4 hrs by Dopa potentiation test; type: functional, organism-based
Mus musculus [2] = assay: Anticonvulsant activity in mouse assessed as protection against tonic extensor component of audiogenic seizures at 100 mg/kg, po; type: functional
Mus musculus [3] = assay: Antidepressant activity in po dosed mouse after 4 hrs by Dopa potentiation test relative to pemoline; type: functional

| Compound | Activity (Mus musculus [1]) | Activity (Mus musculus [2]) [%] | fold change (FC) (Mus musculus [3]) |
| --- | --- | --- | --- |
| NC(=O)N1CCN(C2=NC(=O)C(c3ccccc3)O2)CC1 (configuration not stated) | Active | 10 |  |
| CNC(=O)N1CCN(C2=NC(=O)C(c3ccccc3)O2)CC1 (configuration not stated) | Active | 50 |  |
| COc1ccc(NC(=O)N2CCN(C3=NC(=O)C(c4ccccc4)O3)CC2)cc1 (configuration not stated) | Active | 20 |  |
| COc1ccc(/C=C/C(=O)N2CCN(C3=NC(=O)C(c4ccccc4)O3)CC2)cc1 (configuration not stated) | Active |  |  |
| O=C1N=C(N2CCN(C(=O)Nc3ccccc3)CC2)OC1c1ccccc1 (configuration not stated) | Active | 50 |  |
| NC1=NC(=O)C(c2ccccc2)O1 (configuration not stated) [PEMOLINE] | Active | 90 |  |
| COc1cc(/C=C/C(=O)N2CCN(C3=NC(=O)C(c4ccccc4)O3)CC2)cc(OC)c1OC (configuration not stated) | Active |  | 2.5 |
| COc1cc(/C=C/C(=O)N2CCN(C3=NC(=O)C(c4ccccc4)O3)CC2)cc(Br)c1OC (configuration not stated) | Active |  | 3 |
| O=C1N=C(N2CCN(C(=O)Nc3ccc(Cl)cc3)CC2)OC1c1ccccc1 (configuration not stated) | Active | 50 |  |
| COc1cc(/C(C)=C/C(=O)N2CCN(C3=NC(=O)C(c4ccccc4)O3)CC2)cc(OC)c1OC (configuration not stated) | Active |  |  |
| O=C1N=C(N2CCN(C(=O)/C=C/c3ccc(F)cc3)CC2)OC1c1ccccc1 (configuration not stated) | Active |  | 2 |
| CCN(CC)C(=O)N1CCN(C2=NC(=O)C(c3ccccc3)O2)CC1 (configuration not stated) | Active | 60 |  |
